# Key:
# [1] = test system: [enzyme•DNA•nucleotide] ternary complex with AF647-C6-dG6P; test: Stopped-flow measurements of t−1 (nucleotide dissociation from ternary complex); type: biochemical; conditions: 330 nM polymerase, 100 nM duplex, 7 μM AF647-C6-dG6P, chase 50 μM non-labeled dNTP, 2 mM MnCl2
# Procedure: The stopped-flow techniques for measuring t−1 (1/k−1) followed the techniques described by M. Bakhtina (2009 Biochemistry 48:3197-3208).
# The rate of the nucleotide dissociation (k1) from the ternary complex of [enzyme•DNA•nucleotide] was measured in an Applied Photophysics SX20 stopped-flow spectrometer by monitoring changes […] a duplex Alexa fluor 546 dye-labeled-DNA template following the mixing of the [enzyme•DNA•labeled nucleotide] ternary complex with 50 μM cognate non-labeled deoxynucleoside triphosphate in a buffer containing 50 mM Tris-HCl (pH 7.5), 50 mM NaCl, 4 mM DTT, 0.2% BSA, and 2 mM MnCl2.
# The ternary complexes were prepared using: 330 nM polymerase, 100 nM template/primer duplex, and 7 μM terminal phosphate-labeled nucleotides (AF647-C6-dG6P).
# The averaged stopped-flow fluorescence traces (>1.5 msec) were fitted with a single exponential equation (2) to extrapolate the rate of the nucleotide dissociation (k−1) from the [enzyme•DNA•nucleotide] ternary complex. Fluorescence=A1*e^−k−1*t+C (equation 2) where A1 represents the corresponding fluorescence amplitude, C is an offset constant, and k−1 and the observed rate constants for the fluorescence transition.
# [2] = test system: dye-labeled primer-template duplex with AF647-C6-dG6P; test: Stopped-flow measurements of tpol (nucleotide incorporation kinetics); type: biochemical; conditions: 330 nM polymerase, 100 nM template/primer duplex, 7 μM AF647-C6-dG6P, 2 mM MnCl2
# Procedure: In this example, the t−1 and tpol values of a Phi-29 polymerase comprising the amino acid sequence of SEQ ID NO: 3 and a B103 polymerase comprising the amino acid sequence of SEQ ID NO: 34 (referred to as “mB103” in the table below) and including amino acid substitutions at various positions were measured using a stopped-flow procedure. The stopped-flow techniques for measuring tpol (1/kpol) followed the techniques described by MP Roettger (2008 Biochemistry 47:9718-9727; M. Bakhtina 2009 Biochemistry 48:3197-320).
# The template sequence (SEQ ID NO: 44) further included an Alexa Fluor 546 dye moiety bonded to the 5′ position of the template.
# The kinetics of nucleotide incorporation by each polymerase was measured in an Applied Photophysics SX20 stopped-flow spectrometer by monitoring changes in fluorescence from the dye-labeled primer-template duplex complexed to enzyme, following the mixing of the enzyme-DNA complex with dye-labeled nucleotides. […]
# The primer and template were annealed to form a dye-labeled primer-template duplex using standard methods. […] The dye-labeled nucleotide AF647-C6-dG6P was then added to a final concentration of 7 μM, and the resulting fluorescence was monitored over time. […]
substance,measurement,setting,value
Phi-29 (exo−): exonuclease-minus Phi-29 polymerase (Phi-29 polymerase comprising SEQ ID NO: 3) [reference compound],t−1,[1],27
same,tpol,[2],11

# From patent publication US9567629B2, “Labeled enzyme compositions, methods and systems” (LIFE TECHNOLOGIES CORPORATION, priority 2009, dated 2017)
